Entries after “also recorded” stand apart in the source; their conditions may differ.
Columns and labels:
ApoB = experiment: ELISA of secreted ApoB in HepG2 cells; assay type: cell-based, human
Outline: (§1)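 HepG2 cells treated with freshly purified compound powders; culture medium assayed by ELISA for secreted ApoB and PCSK9, and cell protein assayed by ELISA for LDLR.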

LDLR [1] = experiment: ELISA of LDLR protein in HepG2 cells; assay type: cell-based, human
Outline: as §1

PCSK9 [2] = experiment: ELISA of secreted PCSK9 protein in HepG2 cells; assay type: cell-based, human
Outline: as §1

HepG2 cells [3] = experiment: Cell Titer Glo (CTG) cell viability assay; assay type: cell-based, human; design: key: A: Increase <2-fold; B: Increase >2-fold; X: Decrease <2-fold; Y: Decrease >2-fold; No significant change; settings: cell viability (ATP)
Outline: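 HepG2 viability was measured after TRIB1 inducer treatment by CellTiter-Glo, a luminescent readout of ATP content proportional to metabolically active cells.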

TRIB1 [4] = experiment: qPCR TRIB1 expression in HepG2 cells; assay type: cell-based, human; settings: for TRIB1 expression (in words) / potency relative to berberine: HepG2; for TRIB1 expression (in words): qPCR; for potency relative to berberine: TRIB1, LDLR, PCSK9 and MTTP gene expression changes
SCAP = experiment: qPCR SCAP transcript level in HepG2 cells; assay type: cell-based, human
Outline: (§2)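 HepG2 cells were treated 20 h with TRIB1 inducer compounds, with a 10 microM duplicate primary screen. Transcripts were quantified by qPCR after RNA isolation and reverse transcription, normalized to GAPDH and expressed relative to DMSO control. Atorvastatin treatment was profiled alongside.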

SREBF1 = experiment: qPCR SREBF1 transcript level in HepG2 cells; assay type: cell-based, human
Outline: as §2

SREBF2 = experiment: qPCR SREBF2 transcript level in HepG2 cells; assay type: cell-based, human
Outline: as §2

PCSK9 [5] = experiment: qPCR PCSK9 expression in HepG2 cells; assay type: cell-based, human; settings: for PCSK9 expression (in words): qPCR
LDLR [6] = experiment: qPCR LDLR expression in HepG2 cells; assay type: cell-based, human; settings: for LDLR expression (in words): HepG2, qPCR
HMGCR = experiment: qPCR HMGCR transcript level in HepG2 cells; assay type: cell-based, human
Outline: as §2

HMGCS = experiment: qPCR HMGCS transcript level in HepG2 cells; assay type: cell-based; settings: Homo sapiens, 20 h
Outline: as §2

FASN = experiment: qPCR FASN transcript level in HepG2 cells; assay type: cell-based; settings: Homo sapiens, 20 h
Outline: as §2

SCD1 = experiment: qPCR SCD1 transcript level in HepG2 cells; assay type: cell-based; settings: Homo sapiens, 20 h
Outline: as §2

APOC3 = experiment: Transcriptional profiling of APOC3 gene in HepG2 cells; assay type: cell-based, human; settings: 10 μM, 24 hours
Description: Expression of APOC3 is associated with increased levels of triglycerides in plasma and carriers of APOC3 gene null mutation have low levels of triglycerides and are protected from cardiovascular disease (Pollin et al., Science, 322:1702, 2008).

MTTP = experiment: qPCR MTTP expression in HepG2 cells; assay type: cell-based, human; settings: 28 hour time course
Protocol: Further analysis of the expression levels of various proteins in the cholesterol and triglyceride biosynthetic pathways in response to TRIB1 inducer treatment was performed. In particular, transcript levels of additional lipoprotein metabolism pathway proteins SCAP, SREBF1, SREBF2, HMGCR, HMGCS, SCD1, FASN and MTTP were assessed by qPCR, along with TRIB1, LDLR, and PCSK9. The gene expression profile for the same subset of genes was also assessed after treatment with the statin atorvastatin (Lipitor), commonly used in therapy for hypercholesterolemia and other cardiovascular diseases.
The kinetics of the modulation of TRIB1, LDLR, PCSK9 and MTTP gene expression after treatment by select TRIB1 inducer compounds was monitored by qPCR analysis (FIG. 4). RNA was extracted from cells at various timepoints over 28 hours of treatment (0, 2, 4, 6, 8, 24, 28 hours). Specifically, compounds 12a and 14a induced transcriptional responses over time similar to those produced by berberine, a plant alkaloid used in Chinese medicine. […] Both compound 12a and compound 14a induce TRIB1 and LDLR and repress PCSK9 and MTTP expression with similar kinetics and similar fold change as berberine Importantly, both compounds induce these gene expression changes at much lower concentrations than berberine. […]

HepG2 cells [7] = experiment: BODIPY-FL LDL uptake in HepG2 cells (high content microscopy); assay type: cell-based, human; settings: treated 20 hours; BODIPY-FL LDL uptake monitored 5 hours
Protocol: TRIB1 inducers increase the rate of LDL uptake. HepG2 cells grown under standard culture conditions (10% FBS) were treated for 20 hours with compounds 2a, 14a and 12a at indicated concentrations and the uptake of BODIPY-FL conjugated LDL particles was monitored for 5 hours using high content microscopy. To control for regulation of LDL uptake by cholesterol, cells were grown in media depleted for (0.5% LPDS—lipoprotein deficient serum) or supplemented with cholesterol (0.5% LPDS plus cholesterol ([…] cholesterol and […] 25-OH cholesterol)).

LDLR [8] = experiment: qPCR LDLR expression in HepG2 cells; assay type: cell-based, human; settings: for induction of LDLR expression in combination with simvastatin (in words): overnight simvastatin, then compound
TRIB1 [9] = experiment: qPCR TRIB1 expression in HepG2 cells; assay type: cell-based; settings: Homo sapiens, HepG2; induction of TRIB1 and LDLR transcript levels; read-out: half maximal effective concentration (EC50)
[10] = at the maximal dose tested, HepG2
[11] = Homo sapiens, 20 h, HepG2 cells

CN(C)c1ccc2c(c1)[C@@H]1C[C@@H](CC(=O)NCc3ccc(Oc4ccccc4)cc3)O[C@@H](CO)[C@@H]1O2 [Compound 12a]
secretion of apoB into the media / ApoB levels (in words) (ApoB; HepG2): inhibited secretion of apoB
ELISA ApoB (ApoB; HepG2 cells): Y (Decrease >2-fold)
increase of the LDL receptor protein in the cell (LDLR [1]; HepG2): 3 fold
ELISA LDLR (LDLR [1]; HepG2 cells): B (Increase >2-fold)
ELISA PCSK9 (PCSK9 [2]; HepG2 cells): Y (Decrease >2-fold)
inhibition of secretion of PCSK9 protein into the media (PCSK9 [2]; [10]): 70%
CTG (HepG2 cells [3]): N
TRIB1 expression (in words) (TRIB1 [4]): induce; also recorded: robustly induced
fold induction at 10 µM (TRIB1 [4]; [11]): < 2
potency relative to berberine (TRIB1 [4]): 5 fold
qPCR SCAP (SCAP): X (Decrease <2-fold)
qPCR SREBF1 (SREBF1): Y (Decrease >2-fold)
qPCR SREBF2 (SREBF2): Y (Decrease >2-fold)
PCSK9 expression (in words) (PCSK9 [5]; HepG2): repress; also recorded: strongly reduced
fold induction at 10 µM (PCSK9 [5]; [11]): > 2
inhibition of expression of PCSK9 mRNA (PCSK9 [5]; [10]): 70%
expression of PCSK9 stimulated by pretreatment with atorvastatin (in words) (PCSK9 [5]): potently reduced
LDLR expression (in words) (LDLR [6]): induction of LDLR expression; also recorded: induce; also recorded: robustly induced
qPCR LDLR (LDLR [6]; HepG2 cells): A (Increase <2-fold)
qPCR HMGCR (HMGCR): Y (Decrease >2-fold)
fold induction at 10 µM (HMGCS): > 2
fold induction at 10 µM (FASN): > 2
fold induction at 10 µM (SCD1): > 2
expression of APOC3 gene (in words) (APOC3): down regulates
MTTP expression (in words) (MTTP): repress
rate of LDL uptake (in words) (HepG2 cells [7]): robust increase
induction of LDLR expression in combination with simvastatin (in words) (LDLR [8]): additive effect

CN1C(=O)c2cc(NC(=O)c3ccc(C(F)(F)F)cc3)ccc2OC[C@@H]2O[C@H](CC(=O)NC3Cc4ccccc4C3)CC[C@@H]21 [Compound 14a]
EC50 (ApoB; Homo sapiens, HepG2, 24 h, read-out: ELISA 24 Hr (EC50 uM) ApoB decrease): 1.1 to 2 µM
EC50 (PCSK9 [2]; Homo sapiens, HepG2, 24 h, read-out: ELISA 24 Hr (EC50 uM) PCSK9 decrease): 0.51 to 1 µM
TRIB1 expression (in words) (TRIB1 [4]): induce; also recorded: robustly induced
potency relative to berberine (TRIB1 [4]): 10 fold
decrease of PCSK9 mRNA below the level induced by cholesterol starvation (PCSK9 [5]; 2.5 μM, 0.5% LPDS, 24 h): 3.8 fold
PCSK9 expression (in words) (PCSK9 [5]; HepG2): repress; also recorded: strongly reduced
expression of PCSK9 stimulated by pretreatment with atorvastatin (in words) (PCSK9 [5]): potently reduced
LDLR expression (in words) (LDLR [6]): induce; also recorded: robustly induced
EC50 (LDLR [6]; Homo sapiens, HepG2, 6 h, read-out: qPCR 6Hr (EC50 uM) LDLR up-regulation): 0.51 to 1 µM
MTTP expression (in words) (MTTP): repress
rate of LDL uptake (in words) (HepG2 cells [7]): robust increase
EC50 (TRIB1 [9]): < 1000 nM
LDLR signal over the non-depleted control (LDLR [8]; 2.5 μM, 0.5% LPDS, 24 h): 9 fold
induction of LDLR expression in combination with simvastatin (in words) (LDLR [8]): additive effect

From US9526720B2, “Modulators of hepatic lipoprotein metabolism” (The Broad Institute, Inc., priority 2012, dated 2016)
